Measured values published in US20100190747A1, “Fused ring compound and use thereof” (priority 2009, published 2010).

Biological target: T1, delta-5-desaturase (Rattus norvegicus, UniProt Q920R3)
T1 construct: the microsomal fraction of a rat river (10 μl), which had been diluted to 3 mg/ml; from tissue; host or cells: rat liver microsomal fraction
Experiment: Inhibitory activity on delta-5-desaturase (rat liver microsomal fraction, 14C-eicosatrienoic acid, TLC)
Type: biochemical
Settings: test compound at 10 μM, room temperature, 120 minutes
How it was run: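 Rat liver microsomes (3 mg/ml before addition) incubated with test compound at 10 μM, NADH, ATP, CoA and 14C-eicosatrienoic acid in phosphate buffer pH 7.4 with BSA and glutathione, 120 min at room temperature. Lipids saponified, extracted, separated by reverse-phase TLC and imaged; % inhibition reported.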

T1 sequence (Q920R3 whole entry): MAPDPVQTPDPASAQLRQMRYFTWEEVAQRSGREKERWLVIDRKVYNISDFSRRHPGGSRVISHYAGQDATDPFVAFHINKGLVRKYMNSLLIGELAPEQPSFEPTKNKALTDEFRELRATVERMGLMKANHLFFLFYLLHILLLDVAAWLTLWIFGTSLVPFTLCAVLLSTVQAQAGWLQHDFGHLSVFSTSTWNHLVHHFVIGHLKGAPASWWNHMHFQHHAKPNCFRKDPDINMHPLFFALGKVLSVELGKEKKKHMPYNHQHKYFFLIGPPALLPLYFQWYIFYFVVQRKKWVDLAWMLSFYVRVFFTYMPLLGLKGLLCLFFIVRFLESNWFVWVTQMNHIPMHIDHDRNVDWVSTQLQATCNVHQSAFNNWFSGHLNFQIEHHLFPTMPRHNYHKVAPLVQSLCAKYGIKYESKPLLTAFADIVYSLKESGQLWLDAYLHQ

In order of rising inhibition at 10 µM:
1. CCOCCCSc1nc2c(c(=O)n1-c1ccc(OCC(F)(F)F)cc1)CC(=O)N2 [Example 302, 2-[(3-Ethoxypropyl)sulfanyl]-3-[4-(2,2,2-trifluoroethoxy)phenyl]-5,7-dihydro-3H-pyrrolo[2,3-d]pyrimidine-4,6-dione]  94%
2. CCOc1ccc(-n2c(SCCCCC(=O)NCCC#N)nc3cc[nH]c3c2=O)cc1 [Example 65, N-(2-cyanoethyl)-5-{[3-(4-ethoxyphenyl)-4-oxo-4,5-dihydro-3H-pyrrolo[3,2-d]pyrimidin-2-yl]sulfanyl}pentanamide]  97%
3. CCOc1ccc(-n2c(SCCCC(=O)NCC#N)nc3cc[nH]c3c2=O)cc1 [Example 63, N-(cyanomethyl)-4-{[3-(4-ethoxyphenyl)-4-oxo-4,5-dihydro-3H-pyrrolo[3,2-d]pyrimidin-2-yl]sulfanyl}butanamide]  98%
4. CS(=O)(=O)CCCSc1nc2cc[nH]c2c(=O)n1-c1ccc(OCC(F)(F)F)cc1 [Example 80, 2-{[3-(Methylsulfonyl)propyl]sulfanyl}-3-[4-(2,2,2-trifluoroethoxy)phenyl]-3,5-dihydro-4H-pyrrolo[3,2-d]pyrimidin-4-one]  98%
5. CCOc1nc2[nH]ccc2c(=O)n1-c1ccc(OCC(F)(F)F)cc1 [Example 209, 2-Ethoxy-3-[4-(2,2,2-trifluoroethoxy)phenyl]-3,7-dihydro-4H-pyrrolo[2,3-d]pyrimidin-4-one]  99%
6. O=C1Cc2c(nc(OCC(F)F)n(-c3ccc(OCC(F)(F)F)cc3)c2=O)N1 [Example 275, 2-(2,2-Difluoroethoxy)-3-[4-(2,2,2-trifluoroethoxy)phenyl]-5,7-dihydro-3H-pyrrolo[2,3-d]pyrimidine-4,6-dione]  99%
7. CCSc1nc2c(c(=O)n1-c1ccc(OCC(F)F)cc1)CC(=O)N2 [Example 270, 3-[4-(2,2-Difluoroethoxy)phenyl]-2-(ethylsulfanyl)-5,7-dihydro-3H-pyrrolo[2,3-d]pyrimidine-4,6-dione]  99%
8. O=C(CCCSc1nc2cc[nH]c2c(=O)n1-c1ccc(OCC(F)(F)F)cc1)N1CCSCC1 [Example 136, 2-[(4-Oxo-4-thiomorpholin-4-ylbutyl)sulfanyl]-3-[4-(2,2,2-trifluoroethoxy)phenyl]-3,5-dihydro-4H-pyrrolo[3,2-d]pyrimidin-4-one]  99%
9. O=C(CCCSc1nc2cc[nH]c2c(=O)n1-c1ccc(OCC(F)(F)F)cc1)NCC(F)(F)F [Example 75, 4-({4-Oxo-3-[4-(2,2,2-trifluoroethoxy)phenyl]-4,5-dihydro-3H-pyrrolo[3,2-d]pyrimidin-2-yl}sulfanyl)-N-(2,2,2-trifluoroethyl)butanamide]  99%
10. N#CCCNC(=O)CCCSc1nc2cc[nH]c2c(=O)n1-c1ccc(OCCC(F)(F)F)cc1 [Example 90, N-(2-cyanoethyl)-4-({4-oxo-3-[4-(3,3,3-trifluoropropoxy)phenyl]-4,5-dihydro-3H-pyrrolo[3,2-d]pyrimidin-2-yl}sulfanyl)butanamide]  99%
11. N#CCCCCSc1nc2cc[nH]c2c(=O)n1-c1ccc(OCC(F)(F)F)cc1 [Example 87, 5-({4-Oxo-3-[4-(2,2,2-trifluoroethoxy)phenyl]-4,5-dihydro-3H-pyrrolo[3,2-d]pyrimidin-2-yl}sulfanyl)pentanenitrile]  99%
12. CCOCCOCCSc1nc2cc[nH]c2c(=O)n1-c1ccc(OCC2CC2)c(Cl)c1 [Example 163, 3-[3-Chloro-4-(cyclopropylmethoxy)phenyl]-2-{[2-(2-ethoxyethoxy)ethyl]sulfanyl}-3,5-dihydro-4H-pyrrolo[3,2-d]pyrimidin-4-one]  99%
13. CCSc1nc2[nH]ccc2c(=O)n1-c1ccc(OCC2CC2)cc1 [Example 208, 3-[4-(Cyclopropylmethoxy)phenyl]-2-(ethylsulfanyl)-3,7-dihydro-4H-pyrrolo[2,3-d]primidin-4-one]  100%
14. COCCOCCCSc1nc2c(c(=O)n1-c1ccc(OCC(F)(F)F)cc1)CC(=O)N2 [Example 299, 2-{[3-(2-Methoxyethoxy)propyl]sulfanyl}-3-[4-(2,2,2-trifluoroethoxy)phenyl]-5,7-dihydro-3H-pyrrolo[2,3-d]pyrimidine-4,6-dione]  100%
15. CCCSc1nc2[nH]ccc2c(=O)n1-c1ccc(OCC(F)(F)F)cc1 [Example 224, 2-(Propylsulfanyl)-3-[4-(2,2,2-trifluoroethoxy)phenyl]-3,7-dihydro-4H-pyrrolo[2,3-d]pyrimidin-4-one]  100%
16. N#CCCNC(=O)CCCSc1nc2cc[nH]c2c(=O)n1-c1ccc(OCC2CC2(F)F)cc1 (stereo not drawn) [Example 95, N-(2-cyanoethyl)-4-[(3-{4-[(2,2-difluorocyclopropyl)methoxy]phenyl}-4-oxo-4,5-dihydro-3H-pyrrolo[3,2-d]pyrimidin-2-yl)sulfanyl]butanamide]  100%
17. CCCCOc1ccc(-n2c(SCCCC(=O)NCCC#N)nc3cc[nH]c3c2=O)cc1 [Example 91, 4-{[3-(4-Butoxyphenyl)-4-oxo-4,5-dihydro-3H-pyrrolo[3,2-d]pyrimidin-2-yl]sulfanyl}-N-(2-cyanoethyl)butanamide]  100%
18. N#CCCNC(=O)CCCSc1nc2[nH]ccc2c(=O)n1-c1ccc(OCC2CC2(F)F)cc1 (stereo not drawn) [Example 177, N-(2-cyanoethyl)-4-[(3-{4-[(2,2-difluorocyclopropyl)methoxy]phenyl}-4-oxo-4,7-dihydro-3H-pyrrolo[2,3-d]pyrimidin-2-yl)sulfanyl]butanamide]  100%
19. O=c1c2[nH]ccc2nc(SCC(F)(F)F)n1-c1ccc(OCC(F)(F)F)cc1 [Example 103, 3-[4-(2,2,2-Trifluoroethoxy)phenyl]-2-[(2,2,2-trifluoroethyl)sulfanyl]-3,5-dihydro-4H-pyrrolo[3,2-d]pyrimidin-4-one]  100%
20. CC1(O)CCN(C(=O)CCCSc2nc3cc[nH]c3c(=O)n2-c2ccc(OCC(F)(F)F)cc2)CC1 [Example 134, 2-{[4-(4-Hydroxy-4-methylpiperidin-1-yl)-4-oxobutyl]sulfanyl}-3-[4-(2,2,2-trifluoroethoxy)phenyl]-3,5-dihydro-4H-pyrrolo[3,2-d]pyrimidin-4-one]  100%
21. O=C(CCCSc1nc2cc[nH]c2c(=O)n1-c1ccc(OCC(F)(F)F)cc1)N1CCC(O)C1 (stereo not drawn) [Example 97]  100%
22. CCCCOc1nc2[nH]ccc2c(=O)n1-c1ccc(OCC(F)(F)F)cc1 [Example 222, 2-Butoxy-3-[4-(2,2,2-trifluoroethoxy)phenyl]-3,7-dihydro-4H-pyrrolo[2,3-d]pyrimidin-4-one]  101%
23. O=C1Cc2c(nc(SCC3CCC3)n(-c3ccc(OCC(F)(F)F)cc3)c2=O)N1 [Example 296, 2-[(Cyclobutylmethyl)sulfanyl]-3-[4-(2,2,2-trifluoroethoxy)phenyl]-5,7-dihydro-3H-pyrrolo[2,3-d]pyrimidine-4,6-dione]  101%
24. O=C1Cc2c(nc(OCCC3CC3)n(-c3ccc(OCC(F)(F)F)cc3)c2=O)N1 [Example 319, 2-(2-Cyclopropylethoxy)-3-[4-(2,2,2-trifluoroethoxy)phenyl]-5,7-dihydro-3H-pyrrolo[2,3-d]pyrimidine-4,6-dione]  104%
